≈ marks a conversion by molar mass, not a printed value. Where “and” joins values, the source holds several entries; their conditions need not be identical. Identical values can stand only once. Blank lines part the entries; values can stand above or below the compound they belong to.
Legend:
Assay in all cases: ≥ marks a high value that may be exact or a test limit, other limits are often not marked, values filed in µg/mL are converted to µM
[1] = tested on: Staphylococcus aureus KCTC 1621
[2] = tested on: Staphylococcus epidermidis KCTC 1917
[3] = tested on: Salmonella typhimurium KCTC 1926
[4] = tested on: Bacillus subtilis KCTC 3068
[5] = tested on: Escherichia coli KCTC 1682
[6] = tested on: Pseudomonas aeruginosa KCTC 1637
[7] = tested on: Staphylococcus aureus NCTC 8325
[8] = tested on: Escherichia coli ATCC 25922
[9] = tested on: Staphylococcus aureus USA 300
[10] = tested on: Pseudomonas aeruginosa PAO1
[11] = tested on: Klebsiella pneumoniae ATCC 13883
[12] = tested on: Staphylococcus aureus
[13] = tested on: Klebsiella pneumoniae
[14] = tested on: Staphylococcus aureus ATCC 25923
[15] = tested on: Pseudomonas aeruginosa
[16] = tested on: Pseudomonas aeruginosa ATCC 27853
[17] = tested on: Acinetobacter baumannii
[18] = tested on: Acinetobacter baumannii ATCC 19606
[19] = tested on: Escherichia coli
[20] = tested on: Salmonella enterica subsp. enterica serovar Typhimurium ATCC 14028
[21] = tested on: Pseudomonas aeruginosa CMCCB 10104
[22] = tested on: Candida albicans ATCC 2002

MIC [1]: 2 µM (≈ 3.81 µg/mL)
MIC [2]: 4 µM (≈ 7.62 µg/mL)
MIC [3]: 2 µM (≈ 3.81 µg/mL)
MIC [4]: 2 µM (≈ 3.81 µg/mL)
MIC [5]: 4 µM (≈ 7.62 µg/mL)
MIC [6]: 16 µM (≈ 30.5 µg/mL)
SMILES: CC(C)C[C@H](NC(=O)[C@H](Cc1ccccc1)NC(=O)[C@H](CCCN=C(N)N)NC(=O)[C@H](CCCCN)NC(=O)[C@H](Cc1c[nH]c2ccccc12)NC(=O)[C@H](CCCN=C(N)N)NC(=O)[C@H](CCC(N)=O)NC(=O)[C@@H](NC(=O)[C@H](Cc1c[nH]c2ccccc12)NC(=O)[C@H](CCCN=C(N)N)NC(=O)[C@H](CCCCN)NC(=O)[C@@H](N)Cc1ccccc1)C(C)C)C(=O)N[C@@H](CCCN=C(N)N)C(N)=O [FKRWVQRWKRFLR]

MIC [7]: ≥ 50 µM
MIC [8]: 3 µM (≈ 10.6 µg/mL)
SMILES: CSCC[C@H](NC(=O)[C@H](CC(C)C)NC(=O)[C@H](CO)NC(=O)CNC(=O)[C@H](C)NC(=O)[C@@H](NC(=O)[C@H](CC(N)=O)NC(=O)[C@H](CCCCN)NC(=O)[C@H](CC(C)C)NC(=O)[C@@H](NC(=O)[C@H](CC(N)=O)NC(=O)[C@H](CCCCN)NC(=O)CNC(=O)[C@@H](NC(=O)[C@H](CCCCN)NC(=O)[C@H](CCCCN)NC(=O)[C@H](Cc1ccccc1)NC(=O)[C@@H](NC(=O)[C@H](CC(N)=O)NC(=O)[C@H](Cc1ccccc1)NC(=O)[C@H](CC(C)C)NC(=O)CN)C(C)C)C(C)C)C(C)C)C(C)C)C(=O)N[C@@H](CC(=O)O)C(=O)N[C@@H](CC(N)=O)C(=O)N[C@@H](CC(C)C)C(=O)N[C@@H](CCCCN)C(=O)N[C@H]1CSSC[C@@H](C(=O)O)NC(=O)[C@H](CCC(=O)O)NC(=O)CNC(=O)[C@H](CO)NC(=O)[C@H](C(C)C)NC(=O)[C@H](CCCCN)NC1=O [GLFNVFKKVGKNVLKNVAGSLMDNLKCKVSGEC]

MIC [7]: 20 µM (≈ 54.2 µg/mL)
MIC [8]: 5 µM (≈ 13.6 µg/mL)
SMILES: CC[C@H](C)[C@H](NC(=O)CNC(=O)[C@H](CCCCN)NC(=O)[C@H](Cc1ccccc1)NC(=O)[C@@H](NC(=O)[C@H](CCCCN)NC(=O)[C@H](CCCCN)NC(=O)[C@H](CC(C)C)NC(=O)[C@H](C)NC(=O)[C@H](CCCCN)NC(=O)[C@H](CC(C)C)NC(=O)CN)C(C)C)C(=O)N[C@@H](Cc1cnc[nH]1)C(=O)N[C@@H](CCCCN)C(=O)N[C@@H](C)C(=O)N[C@H](C(=O)N[C@@H](CCCCN)C(=O)N[C@@H](CC(C)C)C(=O)N[C@H](C(=O)N[C@@H](CC(N)=O)C(=O)N[C@@H](CCCCN)C(=O)N[C@@H](Cc1cnc[nH]1)C(=O)N[C@H](C(=O)N[C@@H](CCCCN)C(=O)O)C(C)C)[C@@H](C)CC)[C@@H](C)CC [GLKALKKVFKGIHKAIKLINKHVK]

MIC [9]: 1.56 µM (≈ 2.02 µg/mL)
MIC [8]: > 25 µM
MIC [10]: > 25 µM
MIC [11]: 25 µM (≈ 32.4 µg/mL)
SMILES: CC(C)C[C@H](NC(=O)[C@H](CC(C)C)NC(=O)[C@H](CCCCN)NC(=O)CNC(=O)[C@H](CC(C)C)NC(=O)[C@H](C)NC(=O)[C@H](CO)NC(=O)[C@H](CC(C)C)NC(=O)[C@H](CC(C)C)NC(=O)[C@H](CO)NC(=O)[C@H](CC(C)C)NC(=O)[C@H](CC(C)C)NC(=O)CN)C(N)=O [GLLSLLSALGKLL]

MIC [7]: ≥ 160 µM
MIC [8]: 20 µM (≈ 54.4 µg/mL)
SMILES: CC[C@H](C)[C@H](NC(=O)CNC(=O)[C@H](CCC(N)=O)NC(=O)[C@H](Cc1ccccc1)NC(=O)[C@@H](NC(=O)[C@H](CCCCN)NC(=O)[C@H](CCCCN)NC(=O)[C@H](Cc1ccccc1)NC(=O)[C@H](C)NC(=O)[C@H](CC(N)=O)NC(=O)[C@H](CC(C)C)NC(=O)CN)C(C)C)C(=O)N[C@@H](Cc1cnc[nH]1)C(=O)N[C@@H](CCC(=O)O)C(=O)N[C@@H](C)C(=O)N[C@H](C(=O)N[C@@H](CCCCN)C(=O)N[C@@H](CC(C)C)C(=O)N[C@H](C(=O)N[C@@H](CC(N)=O)C(=O)N[C@@H](CC(N)=O)C(=O)N[C@@H](Cc1cnc[nH]1)C(=O)N[C@H](C(=O)N[C@@H](CCC(N)=O)C(=O)O)C(C)C)[C@@H](C)CC)[C@@H](C)CC [GLNAFKKVFQGIHEAIKLINNHVQ]

MIC [12]: 5.66 µM (≈ 11.6 µg/mL)
MIC [13]: 4 µM (≈ 8.19 µg/mL)
MIC [14]: 11.3 µM (≈ 23.2 µg/mL)
MIC [15]: 2.83 µM (≈ 5.79 µg/mL)
MIC [8]: 0.354 µM (≈ 0.724 µg/mL)
MIC [16]: 2 µM (≈ 4.1 µg/mL)
MIC [17]: 0.5 µM (≈ 1.02 µg/mL)
MIC [18]: 0.707 µM (≈ 1.45 µg/mL)
MIC [19]: 4 µM (≈ 8.19 µg/mL)
MIC [11]: 2 µM (≈ 4.1 µg/mL)
SMILES: CC[C@H](C)[C@H](NC(=O)[C@H](CCCCN)NC(=O)[C@H](CC(C)C)NC(=O)[C@H](C)NC(=O)[C@H](CCCCN)NC(=O)[C@H](CC(C)C)NC(=O)[C@H](C)NC(=O)CNC(=O)[C@H](CCCCN)NC(=O)[C@H](C)NC(=O)[C@@H](NC(=O)[C@@H](N)CCCCN)[C@@H](C)CC)C(=O)N[C@@H](C)C(=O)N[C@@H](CCCCN)C(=O)N[C@H](C(=O)N[C@@H](C)C(=O)N[C@@H](CC(C)C)C(=O)N[C@@H](CCCCN)C(=O)N[C@@H](C)C(=O)N[C@@H](CC(C)C)C(N)=O)C(C)C [KIAKGALKALKIAKVALKAL]

MIC [4]: 8.77 µM and 17.5 µM
SMILES: CC(C)C[C@H](NC(=O)[C@H](CC(C)C)NC(=O)[C@H](CCCCN)NC(=O)[C@H](CCCCN)NC(=O)[C@H](Cc1c[nH]c2ccccc12)NC(=O)[C@H](CC(C)C)NC(=O)[C@H](CCCCN)NC(=O)[C@H](CCCCN)NC(=O)[C@H](CC(C)C)NC(=O)[C@@H](N)CCCCN)C(=O)N[C@@H](CCCCN)C(N)=O [KLKKLWKKLLK]

MIC [14]: > 30 µM
MIC [20]: > 30 µM
MIC [8]: 18.1 µM and 30 µM
MIC [18]: 25.4 µM and 30 µM
MIC [11]: 30 µM (≈ 54.5 µg/mL)
SMILES: CC(C)C[C@H](NC(=O)[C@H](CCCN=C(N)N)NC(=O)[C@H](CCCN=C(N)N)NC(=O)[C@H](C)NC(=O)[C@H](Cc1c[nH]c2ccccc12)NC(=O)CNC(=O)[C@H](CCCN=C(N)N)NC(=O)[C@@H](N)CCCN=C(N)N)C(=O)N[C@@H](C)C(=O)N[C@@H](C)C(=O)N[C@@H](C)C(=O)N[C@@H](Cc1ccc(O)cc1)C(=O)NCC(=O)N[C@@H](CCCN=C(N)N)C(=O)N[C@@H](CCCN=C(N)N)C(N)=O [RRGWARRLAAAYGRR]

MIC [21]: 3.65 µM (≈ 11.8 µg/mL)
MIC [22]: 3.65 µM (≈ 11.8 µg/mL)
MIC [14]: 1.82 µM (≈ 5.9 µg/mL)
MIC [8]: 3.65 µM (≈ 11.8 µg/mL)
SMILES: CC[C@H](C)[C@H](NC(=O)[C@H](CC(C)C)NC(=O)[C@H](CC(C)C)NC(=O)[C@H](CC(=O)O)NC(=O)[C@H](CCCCN)NC(=O)[C@@H](NC(=O)[C@@H](NC(=O)CNC(=O)[C@H](CC(C)C)NC(=O)[C@@H](NC(=O)[C@@H](N)CO)C(C)C)[C@@H](C)O)C(C)C)C(=O)NCC(=O)N[C@@H](C)C(=O)NCC(=O)N[C@@H](CCCCN)C(=O)N[C@@H](CO)C(=O)N[C@@H](C)C(=O)N[C@@H](C)C(=O)N[C@@H](CCC(N)=O)C(=O)N[C@@H](CO)C(=O)N[C@H](C(=O)N[C@@H](CC(C)C)C(=O)N[C@H](C(=O)N[C@@H](C)C(=O)N[C@@H](CC(N)=O)C(=O)N[C@@H](CO)C(=O)N[C@H]1CSSC[C@@H](C(=O)O)NC(=O)[C@H](CO)NC(=O)[C@H](CC(N)=O)NC(=O)[C@H](CO)NC(=O)[C@H](CC(C)C)NC(=O)[C@H](CCCCN)NC1=O)[C@@H](C)O)C(C)C [SVLGTVKDLLIGAGKSAAQSVLTANSCKLSNSC]

MIC [21]: ≥ 142 µM
MIC [22]: ≥ 142 µM
MIC [14]: > 142 µM
MIC [8]: > 142 µM
SMILES: CC[C@H](C)[C@H](NC(=O)[C@H](CCCCN)NC(=O)[C@H](CCCCN)NC(=O)CNC(=O)[C@H](CCSC)NC(=O)[C@H](CO)NC(=O)[C@@H](NC(=O)[C@@H](NC(=O)[C@H](CC(N)=O)NC(=O)CNC(=O)[C@H](CC(C)C)NC(=O)[C@H](Cc1ccccc1)NC(=O)[C@@H](N)C(C)C)[C@@H](C)CC)C(C)C)C(=O)O [VFLGNIVSMGKKI]
